Experimental data taken from PMC6478789, “A chemical toolbox for the study of bromodomains and epigenetic signaling” (Nature Communications, 2019).
pKd: −log10 of the molar value. Like-named read-outs stand apart in the source and are kept apart here. Values belong to the compound of their own block, whether it stands above or below them.

Legend:
MYST1 = target: T1, MYST1 (Homo sapiens, UniProt Q9H7Z6); test: Histone acetyltransferase (HAT) activity assay; assay type: biochemical; conditions: for activity at 1 µM / activity at 10 µM: read-out: HATs Activity (%);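 as to all read-outs here: selectivity screen across a panel of histone acetyltransferases, with compounds tested at 1 and 10 µM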
T1 sequence (Q9H7Z6 1-458): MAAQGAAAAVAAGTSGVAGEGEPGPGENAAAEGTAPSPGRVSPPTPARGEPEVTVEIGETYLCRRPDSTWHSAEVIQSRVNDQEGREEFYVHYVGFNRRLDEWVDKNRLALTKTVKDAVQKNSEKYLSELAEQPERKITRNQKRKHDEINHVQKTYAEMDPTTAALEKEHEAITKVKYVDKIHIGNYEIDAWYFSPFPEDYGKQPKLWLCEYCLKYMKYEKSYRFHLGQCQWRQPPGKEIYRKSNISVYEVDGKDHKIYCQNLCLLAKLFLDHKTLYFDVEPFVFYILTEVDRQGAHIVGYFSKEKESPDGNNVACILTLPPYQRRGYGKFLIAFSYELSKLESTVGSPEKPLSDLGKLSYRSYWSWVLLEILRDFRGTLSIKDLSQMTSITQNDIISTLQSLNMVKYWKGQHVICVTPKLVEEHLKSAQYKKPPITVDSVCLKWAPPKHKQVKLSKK

HAT1 = target: T2, HAT1 (Homo sapiens, UniProt O14929); test: Histone acetyltransferase (HAT) activity assay; assay type: biochemical; conditions: for activity at 1 µM / activity at 10 µM: read-out: HATs Activity (%);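 as to all read-outs here: HAT selectivity screen of BRD probe compounds, enzyme activity in % measured with compound at 1 µM and 10 µM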
T2 sequence (O14929 1-419): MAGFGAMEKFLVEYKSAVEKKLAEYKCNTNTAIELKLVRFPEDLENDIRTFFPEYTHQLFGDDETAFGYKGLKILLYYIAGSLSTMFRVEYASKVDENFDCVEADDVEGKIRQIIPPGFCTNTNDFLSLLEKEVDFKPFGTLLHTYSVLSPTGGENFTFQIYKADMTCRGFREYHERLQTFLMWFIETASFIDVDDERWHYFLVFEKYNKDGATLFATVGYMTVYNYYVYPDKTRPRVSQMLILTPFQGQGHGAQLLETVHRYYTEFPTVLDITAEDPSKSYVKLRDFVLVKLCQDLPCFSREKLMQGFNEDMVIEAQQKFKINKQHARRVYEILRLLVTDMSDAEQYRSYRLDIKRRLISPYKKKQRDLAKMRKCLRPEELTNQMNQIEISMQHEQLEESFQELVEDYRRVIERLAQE

EP300 [1] = target: EP300 (Homo sapiens, UniProt Q09472); test: Histone acetyltransferase (HAT) activity assay; assay type: biochemical; conditions: for activity at 1 µM / activity at 10 µM: read-out: HATs Activity (%);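 as to all read-outs here: selectivity screen of bromodomain probe compounds against histone acetyltransferases, with enzyme activity given in percent for compounds tested at 1 and 10 µM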
Target sequence in this assay (Q09472 whole entry, species assumed): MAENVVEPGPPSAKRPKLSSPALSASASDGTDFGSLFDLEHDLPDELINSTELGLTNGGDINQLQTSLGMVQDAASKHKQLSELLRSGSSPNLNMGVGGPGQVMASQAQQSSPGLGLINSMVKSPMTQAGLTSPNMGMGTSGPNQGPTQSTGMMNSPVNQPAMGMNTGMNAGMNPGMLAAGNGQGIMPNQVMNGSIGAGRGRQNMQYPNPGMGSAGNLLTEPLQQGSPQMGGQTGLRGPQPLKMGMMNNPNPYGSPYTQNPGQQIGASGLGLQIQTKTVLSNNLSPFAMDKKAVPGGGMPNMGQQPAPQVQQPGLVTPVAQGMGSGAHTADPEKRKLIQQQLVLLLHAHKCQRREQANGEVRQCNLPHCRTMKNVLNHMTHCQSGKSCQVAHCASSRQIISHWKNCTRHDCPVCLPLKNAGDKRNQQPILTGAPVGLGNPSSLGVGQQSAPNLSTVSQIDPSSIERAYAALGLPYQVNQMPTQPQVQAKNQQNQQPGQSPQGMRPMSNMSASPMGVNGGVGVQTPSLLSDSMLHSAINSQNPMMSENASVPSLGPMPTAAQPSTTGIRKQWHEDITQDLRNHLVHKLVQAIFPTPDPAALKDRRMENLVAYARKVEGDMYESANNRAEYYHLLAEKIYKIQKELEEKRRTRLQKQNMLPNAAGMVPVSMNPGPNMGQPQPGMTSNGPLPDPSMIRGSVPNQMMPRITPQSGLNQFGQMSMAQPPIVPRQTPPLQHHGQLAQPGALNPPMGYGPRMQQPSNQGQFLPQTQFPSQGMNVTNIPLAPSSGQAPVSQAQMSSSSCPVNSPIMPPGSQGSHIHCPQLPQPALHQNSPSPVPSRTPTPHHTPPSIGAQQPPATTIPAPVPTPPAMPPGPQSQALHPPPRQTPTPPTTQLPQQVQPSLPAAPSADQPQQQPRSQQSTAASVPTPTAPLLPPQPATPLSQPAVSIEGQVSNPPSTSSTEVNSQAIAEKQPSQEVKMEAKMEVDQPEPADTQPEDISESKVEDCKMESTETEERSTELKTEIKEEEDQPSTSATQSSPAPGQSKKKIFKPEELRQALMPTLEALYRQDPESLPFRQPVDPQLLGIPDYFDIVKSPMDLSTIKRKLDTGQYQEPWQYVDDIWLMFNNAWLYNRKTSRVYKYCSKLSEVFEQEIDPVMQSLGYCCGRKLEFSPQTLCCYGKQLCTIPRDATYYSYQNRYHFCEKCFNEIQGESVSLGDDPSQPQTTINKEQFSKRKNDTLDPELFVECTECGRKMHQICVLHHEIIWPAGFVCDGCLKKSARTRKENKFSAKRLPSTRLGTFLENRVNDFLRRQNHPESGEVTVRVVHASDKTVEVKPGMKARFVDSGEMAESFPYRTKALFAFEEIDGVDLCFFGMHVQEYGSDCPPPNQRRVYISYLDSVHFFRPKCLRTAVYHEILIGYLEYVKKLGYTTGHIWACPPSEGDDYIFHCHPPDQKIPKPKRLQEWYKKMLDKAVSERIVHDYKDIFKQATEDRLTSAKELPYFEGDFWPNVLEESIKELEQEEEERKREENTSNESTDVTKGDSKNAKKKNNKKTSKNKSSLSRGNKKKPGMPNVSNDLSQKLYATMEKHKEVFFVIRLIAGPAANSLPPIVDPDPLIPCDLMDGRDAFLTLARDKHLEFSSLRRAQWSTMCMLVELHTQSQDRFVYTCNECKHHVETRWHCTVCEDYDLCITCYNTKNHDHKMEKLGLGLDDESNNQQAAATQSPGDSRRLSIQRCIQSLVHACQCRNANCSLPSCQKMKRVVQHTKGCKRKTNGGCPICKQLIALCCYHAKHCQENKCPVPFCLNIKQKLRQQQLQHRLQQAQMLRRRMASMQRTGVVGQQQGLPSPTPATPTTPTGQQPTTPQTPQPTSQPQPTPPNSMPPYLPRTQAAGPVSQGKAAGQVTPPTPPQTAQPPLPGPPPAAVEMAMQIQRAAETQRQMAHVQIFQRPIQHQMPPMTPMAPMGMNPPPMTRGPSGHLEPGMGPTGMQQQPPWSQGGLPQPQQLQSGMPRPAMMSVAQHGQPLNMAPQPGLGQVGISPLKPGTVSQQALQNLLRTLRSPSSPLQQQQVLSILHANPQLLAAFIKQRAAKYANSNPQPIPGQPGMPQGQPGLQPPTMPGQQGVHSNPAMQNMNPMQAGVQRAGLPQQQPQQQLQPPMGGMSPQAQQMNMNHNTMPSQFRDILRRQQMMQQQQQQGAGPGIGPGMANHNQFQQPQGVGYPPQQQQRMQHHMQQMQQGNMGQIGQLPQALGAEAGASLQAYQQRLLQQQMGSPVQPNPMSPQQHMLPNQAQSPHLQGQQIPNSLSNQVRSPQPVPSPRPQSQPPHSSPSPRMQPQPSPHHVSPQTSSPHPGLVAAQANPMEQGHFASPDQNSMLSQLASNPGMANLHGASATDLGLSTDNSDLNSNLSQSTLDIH

MYST3 = MYST3 (Homo sapiens, UniProt Q92794); test: Histone acetyltransferase (HAT) activity assay; assay type: biochemical; conditions: for activity at 1 µM / activity at 10 µM: read-out: HATs Activity (%);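 as to all read-outs here: selectivity screen of bromodomain probe compounds across a panel of histone acetyltransferases, read out as enzyme activity in %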
GCN5L2 = GCN5L2 (Homo sapiens, UniProt Q92830); test: Histone acetyltransferase (HAT) activity assay; assay type: biochemical; conditions: for activity at 1 µM / activity at 10 µM: read-out: HATs Activity (%);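 as to all read-outs here: selectivity screen of BRD probe compounds across a panel of histone acetyltransferases, HAT activity in % with compound at 1 or 10 µM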
Chain of GCN5L2 (Q92830 whole entry, species assumed, the tested form may be a part): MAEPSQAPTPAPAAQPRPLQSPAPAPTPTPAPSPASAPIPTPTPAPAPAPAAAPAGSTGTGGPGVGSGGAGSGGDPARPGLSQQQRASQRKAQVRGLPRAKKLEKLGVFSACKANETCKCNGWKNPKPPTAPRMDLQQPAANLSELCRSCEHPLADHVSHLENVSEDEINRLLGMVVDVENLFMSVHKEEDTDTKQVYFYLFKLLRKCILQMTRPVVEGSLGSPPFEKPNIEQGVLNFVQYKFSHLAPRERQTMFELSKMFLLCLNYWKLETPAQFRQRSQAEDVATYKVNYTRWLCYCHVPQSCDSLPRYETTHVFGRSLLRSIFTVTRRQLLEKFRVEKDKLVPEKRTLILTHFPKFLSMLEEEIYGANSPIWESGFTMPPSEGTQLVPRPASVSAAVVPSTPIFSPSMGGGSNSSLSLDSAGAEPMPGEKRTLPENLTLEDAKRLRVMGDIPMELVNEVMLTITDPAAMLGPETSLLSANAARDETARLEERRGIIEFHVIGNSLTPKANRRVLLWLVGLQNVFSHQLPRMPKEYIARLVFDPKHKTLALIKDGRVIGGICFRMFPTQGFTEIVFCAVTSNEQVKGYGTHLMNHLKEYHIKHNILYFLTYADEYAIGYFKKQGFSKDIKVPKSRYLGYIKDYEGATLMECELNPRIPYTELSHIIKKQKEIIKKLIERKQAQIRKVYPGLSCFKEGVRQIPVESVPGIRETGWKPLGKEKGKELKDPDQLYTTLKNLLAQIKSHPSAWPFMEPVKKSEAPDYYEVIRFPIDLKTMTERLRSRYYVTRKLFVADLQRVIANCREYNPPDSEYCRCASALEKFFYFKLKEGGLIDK

BRPF1 [2] = target: BRPF1 (Homo sapiens, UniProt P55201); test: Temperature shift assay (non-BRD reader domains); assay type: binding; conditions: 10µM compound
Target sequence in this assay (P55201 1085-1168 limits assumed, species assumed): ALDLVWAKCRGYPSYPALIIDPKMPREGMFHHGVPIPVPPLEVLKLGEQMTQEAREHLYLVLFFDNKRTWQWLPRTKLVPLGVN

PBRM1(5) = PBRM1(5) (Homo sapiens, UniProt Q86U86); test: BROMOscan ligand-binding assay; conditions: PBRM1(5)
Chain of PBRM1(5) (Q86U86 653-763 limits assumed): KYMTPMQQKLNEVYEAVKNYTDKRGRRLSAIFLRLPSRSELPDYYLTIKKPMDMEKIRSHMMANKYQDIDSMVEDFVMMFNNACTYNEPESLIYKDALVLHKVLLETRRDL
Excerpt: (§1) BROMOscan is a binding assay based on the well-known KINOMEscan technology. This assay measures the binding of a DNA-tagged bromodomain to an immobilized BRD ligand. If an inhibitor is present, it will compete with the bromodomain binding to the immobilized ligand, resulting in reduction of a quantitative PCR (qPCR) signal in a dose-dependent manner.

BRDT(1,2) = BRDT(1,2) (Homo sapiens, UniProt Q58F21); test: BROMOscan ligand-binding assay; conditions: for pKd: BRDT(1,2)
Excerpt: as §1

WDR9(2) = WDR9(2) (Homo sapiens, UniProt Q9NSI6); test: BROMOscan ligand-binding assay; conditions: for pKd: WDR9(2); for Kd: sheet prints no unit (nM)
Chain of WDR9(2) (Q9NSI6 1313-1418 limits assumed): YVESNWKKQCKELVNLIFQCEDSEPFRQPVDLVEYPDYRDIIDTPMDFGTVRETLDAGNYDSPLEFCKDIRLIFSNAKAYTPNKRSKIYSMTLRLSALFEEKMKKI
Excerpt: as §1

CECR2 = CECR2 (Homo sapiens, UniProt Q9BXF3); test: BROMOscan ligand-binding assay; conditions: for pKd: CECR2; for Kd: sheet prints no unit (nM)
Chain of CECR2 (Q9BXF3 434-538 limits assumed): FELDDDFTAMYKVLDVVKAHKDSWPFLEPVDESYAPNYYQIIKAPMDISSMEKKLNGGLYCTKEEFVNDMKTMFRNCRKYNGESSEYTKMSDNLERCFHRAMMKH
Excerpt: as §1

FALZ = FALZ (Homo sapiens, UniProt Q12830); test: BROMOscan ligand-binding assay; conditions: for pKd: FALZ
Excerpt: as §1

BRD2(1) = BRD2(1) (Homo sapiens, UniProt P25440); test: BROMOscan ligand-binding assay; conditions: BRD2(1)
Chain of BRD2(1) (P25440 74-180 limits assumed): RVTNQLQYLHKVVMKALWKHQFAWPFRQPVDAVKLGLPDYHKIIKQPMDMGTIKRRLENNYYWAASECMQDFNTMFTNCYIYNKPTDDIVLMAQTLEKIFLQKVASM
Excerpt: as §1

BAZ2B = target: T3, BAZ2B (Homo sapiens, UniProt Q9UIF8); test: BROMOscan ligand-binding assay; conditions: for pKd: BAZ2B
T3 sequence (Q9UIF8 2060-2164 limits assumed): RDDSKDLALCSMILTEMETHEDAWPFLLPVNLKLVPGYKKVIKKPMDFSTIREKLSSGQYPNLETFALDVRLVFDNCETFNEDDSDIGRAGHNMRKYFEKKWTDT
Excerpt: as §1

BRD1 = target: T4, BRD1 (Homo sapiens, UniProt O95696); test: BROMOscan ligand-binding assay; conditions: BRD1
T4 sequence (O95696 562-666 limits assumed): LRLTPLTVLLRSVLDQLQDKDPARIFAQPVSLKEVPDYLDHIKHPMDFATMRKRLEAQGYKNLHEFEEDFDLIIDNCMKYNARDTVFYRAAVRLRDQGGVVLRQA
Excerpt: as §1

BRD8(2) = BRD8(2) (Homo sapiens, UniProt Q9H0E9); test: BROMOscan ligand-binding assay; conditions: for pKd: BRD8(2); for Kd: sheet prints no unit (nM)
Chain of BRD8(2) (Q9H0E9 1099-1207 limits assumed): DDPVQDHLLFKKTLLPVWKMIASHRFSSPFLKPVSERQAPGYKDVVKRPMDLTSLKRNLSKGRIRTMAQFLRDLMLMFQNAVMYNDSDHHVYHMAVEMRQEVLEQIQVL
Excerpt: as §1

BRD3(2) = BRD3(2) (Homo sapiens, UniProt Q15059); test: BROMOscan ligand-binding assay; conditions: for pKd: BRD3(2)
Chain of BRD3(2) (Q15059 306-415 limits assumed): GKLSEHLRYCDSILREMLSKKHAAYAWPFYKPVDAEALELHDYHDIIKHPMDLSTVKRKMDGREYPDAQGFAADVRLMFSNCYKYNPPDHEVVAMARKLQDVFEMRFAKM
Excerpt: as §1

BRD3(1) = BRD3(1) (Homo sapiens, UniProt Q15059); test: BROMOscan ligand-binding assay; conditions: for pKd: BRD3(1)
Chain of BRD3(1) (Q15059 34-140 limits assumed): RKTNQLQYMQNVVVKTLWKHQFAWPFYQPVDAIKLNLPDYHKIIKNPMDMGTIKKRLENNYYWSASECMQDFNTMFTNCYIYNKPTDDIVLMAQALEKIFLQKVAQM
Excerpt: as §1

EP300 [3] = target: T5, EP300 (Homo sapiens, UniProt Q09472); test: BROMOscan ligand-binding assay; conditions: for pKd: EP300
T5 sequence (Q09472 1049-1156 limits assumed): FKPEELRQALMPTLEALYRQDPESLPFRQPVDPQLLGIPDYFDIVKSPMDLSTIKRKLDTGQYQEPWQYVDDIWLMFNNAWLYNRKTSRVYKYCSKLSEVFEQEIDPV
Excerpt: as §1

BRDT(1) = BRDT(1) (Homo sapiens, UniProt Q58F21); test: BROMOscan ligand-binding assay; conditions: for pKd: BRDT(1)
Excerpt: as §1

BRPF1 [4] = target: T6, BRPF1 (Homo sapiens, UniProt P55201); test: BROMOscan ligand-binding assay
T6 sequence (P55201 628-732 limits assumed): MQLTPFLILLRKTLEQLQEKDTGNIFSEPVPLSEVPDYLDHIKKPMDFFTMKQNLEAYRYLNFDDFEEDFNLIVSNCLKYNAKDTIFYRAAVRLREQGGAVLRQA
Excerpt: as §1

[5] = KD (BROMOscan), sheet prints no unit (nM)

Compound: CO[C@H]1CNC[C@@H](OCC2CCC(F)(F)CC2)[C@@H]1Nc1ncc(-c2cncc(C)c2)c2cc(C)c(=O)[nH]c12 [GSK8814]
activity at 1 µM (MYST1; 1µM): 99% | activity at 10 µM (MYST1; 10µM): 103% | activity at 1 µM (HAT1; 1µM): 100% | activity at 10 µM (HAT1; 10µM): 95% | activity at 1 µM (EP300 [1]; 1µM): 96% | activity at 10 µM (EP300 [1]; 10µM): 102% | activity at 1 µM (MYST3; 1µM): 96% | activity at 10 µM (MYST3; 10µM): 102% | activity at 1 µM (GCN5L2; 1µM): 102% | activity at 10 µM (GCN5L2; 10µM): 100% | Tm (C) 10µM, temperature shift (BRPF1 [2]): -0.2 Kelvin

Compound: Cc1nnc2c3ccccc3c(N[C@@H](C)[C@H](c3ccccc3)N(C)C)nn12 [L-Moses]
activity at 1 µM (MYST1; 1µM): 97% | activity at 10 µM (MYST1; 10µM): 96% | activity at 1 µM (HAT1; 1µM): 100% | activity at 10 µM (HAT1; 10µM): 95% | activity at 1 µM (EP300 [1]; 1µM): 94% | activity at 10 µM (EP300 [1]; 10µM): 90% | activity at 1 µM (MYST3; 1µM): 92% | activity at 10 µM (MYST3; 10µM): 90% | activity at 1 µM (GCN5L2; 1µM): 99% | activity at 10 µM (GCN5L2; 10µM): 95% | Tm (C) 10µM, temperature shift (BRPF1 [2]): -2.7 Kelvin

Compound: COc1cc2c(cc1NS(=O)(=O)c1ccc(Br)cc1C)n(C)c(=O)n2C [OF-1]
pKd (PBRM1(5)): 5.35 | pKd (BRDT(1,2)): 4.96 | pKd (WDR9(2)): < 4.30 | Kd (WDR9(2); read-out: KD (BROMOscan)): > 30000 nM | pKd (CECR2): < 4.30 | Kd (CECR2; read-out: KD (BROMOscan)): > 30000 nM | HATs Activity (%) (MYST1; 1µM): 102% | HATs Activity (%) (MYST1; 10µM): 94% | HATs Activity (%) (HAT1; 1µM): 92% | HATs Activity (%) (HAT1; 10µM): 93% | pKd (FALZ): 5.80 | pKd (BRD2(1)): 5.13 | HATs Activity (%) (EP300 [1]; 1µM): 100% | HATs Activity (%) (EP300 [1]; 10µM): 103% | HATs Activity (%) (MYST3; 1µM): 100% | HATs Activity (%) (MYST3; 10µM): 102% | HATs Activity (%) (GCN5L2; 1µM): 98% | HATs Activity (%) (GCN5L2; 10µM): 93% | pKd (BAZ2B): 5.60 | pKd (BRD1): 6.44 | pKd (BRD8(2)): < 4.30 | Kd (BRD8(2); read-out: KD (BROMOscan)): > 30000 nM | pKd (BRD3(2)): 4.80 | pKd (BRD3(1)): 5.26 | pKd (EP300 [3]): 4.33 | pKd (BRDT(1)): 5.46

Continued, values first:

activity at 1 µM (MYST1; 1µM): 102% | activity at 10 µM (MYST1; 10µM): 98% | activity at 1 µM (HAT1; 1µM): 102% | activity at 10 µM (HAT1; 10µM): 89% | activity at 1 µM (EP300 [1]; 1µM): 93% | activity at 10 µM (EP300 [1]; 10µM): 90% | activity at 1 µM (MYST3; 1µM): 101% | activity at 10 µM (MYST3; 10µM): 101% | activity at 1 µM (GCN5L2; 1µM): 99% | activity at 10 µM (GCN5L2; 10µM): 102% | Tm (C) 10µM, temperature shift (BRPF1 [2]): -0.8 Kelvin
Compound: CN1C[C@H](Nc2cnn(C)c(=O)c2Br)C[C@H](c2ccccc2)C1 [GSK4027]

HATs Activity (%) (MYST1; 1µM): 99% | HATs Activity (%) (MYST1; 10µM): 101% | HATs Activity (%) (HAT1; 1µM): 100% | HATs Activity (%) (HAT1; 10µM): 94% | HATs Activity (%) (EP300 [1]; 1µM): 98% | HATs Activity (%) (EP300 [1]; 10µM): 104% | HATs Activity (%) (MYST3; 1µM): 107% | HATs Activity (%) (MYST3; 10µM): 104% | HATs Activity (%) (GCN5L2; 1µM): 107% | HATs Activity (%) (GCN5L2; 10µM): 107%
Compound: COc1ccccc1C(=O)Nc1cc2c(cc1N1CCNC[C@H]1C)n(C)c(=O)n2C [GSK6853]

Kd (BRDT(1,2); [5]): > 30000 nM | pKd (BRDT(1,2); KD): < 4.00 | Kd (WDR9(2); KD (BROMOscan)): > 30000 nM | pKd (WDR9(2); KD): < 4.00 | Kd (CECR2; KD (BROMOscan)): > 30000 nM | pKd (CECR2; KD): < 4.00 | activity at 1 µM (MYST1; 1µM): 99% | activity at 10 µM (MYST1; 10µM): 99% | activity at 1 µM (HAT1; 1µM): 96% | activity at 10 µM (HAT1; 10µM): 94% | Kd (FALZ; [5]): > 30000 nM | pKd (FALZ; KD): < 4.00 | activity at 1 µM (EP300 [1]; 1µM): 98% | activity at 10 µM (EP300 [1]; 10µM): 97% | activity at 1 µM (MYST3; 1µM): 95% | activity at 10 µM (MYST3; 10µM): 96% | activity at 1 µM (GCN5L2; 1µM): 99% | activity at 10 µM (GCN5L2; 10µM): 101% | Kd (BAZ2B; [5]): > 30000 nM | pKd (BAZ2B; KD): < 4.00 | Kd (BRPF1 [4]; [5]): > 30000 nM | pKd (BRPF1 [4]; KD, BRPF1): < 4.00 | Kd (BRD8(2); KD (BROMOscan)): > 30000 nM | pKd (BRD8(2); KD): < 4.00 | Kd (BRD3(2); [5]): > 30000 nM | pKd (BRD3(2); KD): < 4.00 | Kd (BRD3(1); [5]): > 30000 nM | pKd (BRD3(1); KD): < 4.00 | Kd (EP300 [3]; [5]): > 30000 nM | pKd (EP300 [3]; KD): < 4.00 | Kd (BRDT(1); [5]): > 30000 nM | pKd (BRDT(1); KD): < 4.00
Compound: O=C(C=CN1CC2CC1CN2c1ccccn1)c1ccccc1O (centres unmarked) [PFI-3]
